Test results reported in the NIST ThermoML archive (doi:10.1016/j.jct.2004.09.007).
Numbers after ± are expanded uncertainties.

What was measured:
[1] = molar heat capacity at constant pressure; conditions: 101.3 kPa, Liquid, Large sample (1 g) DSC
[2] = 298.15 K; 101.33 kPa; Liquid; Pycnometric method
[3] = molar heat capacity at constant pressure; xn = mol fraction of the nth substance listed; conditions: 101.3 kPa, Liquid, Large sample (1 g) DSC, x2 = 0

CC(O)CCO (centres undefined) [1,3-butanediol]
[1]
Conditions | molar heat capacity at constant pressure [J/K/mol]
285.15 K | 211.74 ± 3.3
285.65 K | 212.17 ± 3.3
288.15 K | 213.57 ± 3.3
290.65 K | 215.06 ± 3.3
293.15 K | 216.58 ± 3.4
295.65 K | 218.04 ± 3.4
298.15 K | 219.62 ± 3.4
300.65 K | 221.14 ± 3.4
303.15 K | 222.8 ± 3.5
305.65 K | 224.37 ± 3.5
308.15 K | 226.07 ± 3.5
310.65 K | 227.65 ± 3.5
313.15 K | 229.24 ± 3.5
315.65 K | 230.82 ± 3.6
318.15 K | 232.6 ± 3.6
320.65 K | 234.14 ± 3.6
323.15 K | 235.83 ± 3.6
325.65 K | 237.52 ± 3.7
328.15 K | 239.08 ± 3.7
330.65 K | 240.59 ± 3.7
333.15 K | 242.28 ± 3.8
335.65 K | 243.86 ± 3.8
338.15 K | 245.11 ± 3.8
340.65 K | 247.19 ± 3.8
343.15 K | 248.62 ± 3.9
345.65 K | 250.13 ± 3.9
348.15 K | 251.66 ± 3.9
350.65 K | 253.24 ± 3.9
353.15 K | 254.86 ± 4

Conditions | mass density [kg/m3]
[2] | 1000.42 ± 1

CCCCO [butan-1-ol]
[1]
Conditions | molar heat capacity at constant pressure [J/K/mol]
285.15 K | 168.64 ± 2.6
285.65 K | 169.01 ± 2.6
288.15 K | 170.39 ± 2.6
290.65 K | 172 ± 2.7
293.15 K | 173.56 ± 2.7
295.65 K | 175.19 ± 2.7
298.15 K | 176.82 ± 2.7
300.65 K | 178.53 ± 2.8
303.15 K | 180.42 ± 2.8
305.65 K | 182.27 ± 2.8
308.15 K | 184.15 ± 2.9
310.65 K | 186.08 ± 2.9
313.15 K | 187.99 ± 2.9
315.65 K | 189.99 ± 2.9
318.15 K | 192.06 ± 3
320.65 K | 194.2 ± 3
323.15 K | 196.35 ± 3
325.65 K | 198.45 ± 3.1
328.15 K | 200.45 ± 3.1
330.65 K | 202.76 ± 3.1
333.15 K | 204.94 ± 3.2
335.65 K | 207.1 ± 3.2
338.15 K | 209.17 ± 3.2
340.65 K | 211.74 ± 3.3
343.15 K | 213.82 ± 3.3
345.65 K | 216.35 ± 3.4
348.15 K | 218.32 ± 3.4
350.65 K | 220.5 ± 3.4
353.15 K | 222.81 ± 3.5

Conditions | mass density [kg/m3]
[2] | 805.82 ± 1

CCCCO [butan-1-ol] + CC(O)CCO
[3]
Conditions | molar heat capacity at constant pressure [J/K/mol]
285.15 K | 168.64 ± 2.6
285.65 K | 169.01 ± 2.6
288.15 K | 170.39 ± 2.6
290.65 K | 172 ± 2.7
293.15 K | 173.56 ± 2.7
295.65 K | 175.19 ± 2.7
298.15 K | 176.82 ± 2.7
300.65 K | 178.53 ± 2.8
303.15 K | 180.42 ± 2.8
305.65 K | 182.27 ± 2.8
308.15 K | 184.15 ± 2.9
310.65 K | 186.08 ± 2.9
313.15 K | 187.99 ± 2.9
315.65 K | 189.99 ± 2.9
318.15 K | 192.06 ± 3
320.65 K | 194.2 ± 3
323.15 K | 196.35 ± 3
325.65 K | 198.45 ± 3.1
328.15 K | 200.45 ± 3.1
330.65 K | 202.76 ± 3.1
333.15 K | 204.94 ± 3.2
335.65 K | 207.1 ± 3.2
338.15 K | 209.17 ± 3.2
340.65 K | 211.74 ± 3.3
343.15 K | 213.82 ± 3.3
345.65 K | 216.35 ± 3.4
348.15 K | 218.32 ± 3.4
350.65 K | 220.5 ± 3.4
353.15 K | 222.81 ± 3.5
